Assay results published in ChEMBL document CHEMBL5038586, “Thiazolidinedione "Magic Bullets" Simultaneously Targeting PPARγ and HDACs: Design, Synthesis, and Investigations of their In Vitro and In Vivo Antitumor Effects” (J Med Chem, 2021).
Active and inactive are the calls of the source. No cut-off for these calls is given here.

Tests used:
[1] = system: CCRF-CEM; assay: Cytotoxicity against human CEM cells assessed as cell death incubated at 50 uM for 20 hrs measured by DNS assay; assay type: functional
[2] = system: HeLa; assay: Cytotoxicity against human HeLa cells assessed as cell death incubated at 10 uM for 20 hrs measured by DNS assay; assay type: functional
[3] = biological target: T1, Histone deacetylase 8 (Homo sapiens, UniProt Q9BY41); assay: Inhibition of recombinant human HDAC8 using Boc-Lys (trifluoroacetyl)-AMC as substrate preincubated for 1 hr followed by substrate addition and measured after 1 hr by micro plate reader analysis
T1 sequence (Q9BY41 whole entry): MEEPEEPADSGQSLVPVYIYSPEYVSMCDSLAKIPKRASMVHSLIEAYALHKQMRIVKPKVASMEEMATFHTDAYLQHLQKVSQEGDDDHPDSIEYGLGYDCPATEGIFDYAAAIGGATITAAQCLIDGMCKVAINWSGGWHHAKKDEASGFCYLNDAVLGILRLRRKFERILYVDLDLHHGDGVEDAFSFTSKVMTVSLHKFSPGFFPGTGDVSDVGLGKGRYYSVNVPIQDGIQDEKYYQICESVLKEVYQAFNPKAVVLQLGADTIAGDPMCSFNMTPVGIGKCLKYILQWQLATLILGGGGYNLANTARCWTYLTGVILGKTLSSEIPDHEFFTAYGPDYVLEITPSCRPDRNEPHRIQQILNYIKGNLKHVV

[4] = system: CCRF-CEM; assay: Cytotoxicity against human CEM cells assessed as cell death incubated for 20 hrs measured by DNS assay; assay type: functional
[5] = system: HS27; assay: Cytotoxicity against human HS-27 cells assessed as cell death incubated for 20 hrs measured by DNS assay; assay type: toxicity, cell-based; details: hs27, 20 h
[6] = biological target: T2, Histone deacetylase 4 (Homo sapiens, UniProt P56524); assay: Inhibition of recombinant human HDAC4 using Boc-Lys (trifluoroacetyl)-AMC as substrate preincubated for 1 hr followed by substrate addition and measured after 1 hr by micro plate reader analysis
T2 sequence (P56524 whole entry): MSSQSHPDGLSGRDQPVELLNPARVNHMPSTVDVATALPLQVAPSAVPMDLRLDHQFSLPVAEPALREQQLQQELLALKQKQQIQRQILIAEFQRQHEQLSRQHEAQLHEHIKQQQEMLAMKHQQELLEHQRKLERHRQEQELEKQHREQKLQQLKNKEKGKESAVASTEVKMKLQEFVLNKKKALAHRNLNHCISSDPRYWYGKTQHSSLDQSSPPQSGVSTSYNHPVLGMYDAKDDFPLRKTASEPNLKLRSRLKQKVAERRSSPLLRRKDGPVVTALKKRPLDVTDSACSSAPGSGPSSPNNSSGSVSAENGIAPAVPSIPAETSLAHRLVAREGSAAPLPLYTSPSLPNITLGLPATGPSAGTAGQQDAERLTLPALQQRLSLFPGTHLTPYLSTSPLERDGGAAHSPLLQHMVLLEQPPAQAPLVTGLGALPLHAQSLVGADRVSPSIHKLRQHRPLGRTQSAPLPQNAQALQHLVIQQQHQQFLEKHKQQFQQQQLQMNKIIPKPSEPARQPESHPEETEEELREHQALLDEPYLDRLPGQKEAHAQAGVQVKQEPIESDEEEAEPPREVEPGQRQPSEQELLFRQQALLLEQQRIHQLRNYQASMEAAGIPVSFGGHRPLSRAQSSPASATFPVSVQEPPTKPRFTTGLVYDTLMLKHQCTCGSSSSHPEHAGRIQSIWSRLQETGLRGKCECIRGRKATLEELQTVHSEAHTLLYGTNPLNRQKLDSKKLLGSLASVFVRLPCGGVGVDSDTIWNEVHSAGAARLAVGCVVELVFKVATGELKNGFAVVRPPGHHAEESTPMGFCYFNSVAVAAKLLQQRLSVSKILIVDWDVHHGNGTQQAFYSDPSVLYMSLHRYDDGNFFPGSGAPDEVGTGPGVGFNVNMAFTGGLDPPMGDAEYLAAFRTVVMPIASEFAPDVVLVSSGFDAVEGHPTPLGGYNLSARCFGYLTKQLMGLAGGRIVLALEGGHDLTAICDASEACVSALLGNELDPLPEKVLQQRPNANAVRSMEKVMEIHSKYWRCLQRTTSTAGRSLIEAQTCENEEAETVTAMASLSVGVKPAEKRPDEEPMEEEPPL

[7] = system: SH-SY5Y; assay: Cytotoxicity against human SH-SY5Y cells assessed as cell death incubated for 20 hrs measured by DNS assay; assay type: functional
[8] = system: HeLa; assay: Cytotoxicity against human HeLa cells assessed as cell death incubated for 20 hrs measured by DNS assay; assay type: functional
[9] = biological target: T3, Histone deacetylase 8 (Homo sapiens) (UniProt Q9BY41); assay: Inhibition of recombinant human HDAC8 using Boc-Lys (trifluoroacetyl)-AMC as substrate ay 35 uM preincubated for 1 hr followed by substrate addition and measured after 1 hr by micro plate reader analysis
T3 sequence (whole entry): T1 sequence (Q9BY41 whole entry)

[10] = biological target: T2, Histone deacetylase 4; assay: Inhibition of recombinant human HDAC4 using Boc-Lys (trifluoroacetyl)-AMC as substrate ay 35 uM preincubated for 1 hr followed by substrate addition and measured after 1 hr by micro plate reader analysis
[11] = system: Ramos; assay: Cytotoxicity against human Ramos cells assessed as cell death incubated at 10 uM for 20 hrs measured by DNS assay; assay type: functional
[12] = Selectivity index, ratio of CC50 for human HS-27 cells to CC50 for human Ramos cells; assay type: functional
[13] = system: Ramos; assay: Cytotoxicity against human Ramos cells assessed as cell death incubated for 20 hrs measured by DNS assay; assay type: functional
[14] = system: CCRF-CEM; assay: Cytotoxicity against human CEM cells assessed as cell death incubated at 10 uM for 20 hrs measured by DNS assay; assay type: functional
[15] = system: MDA-MB-231; assay: Cytotoxicity against human MDA-MB-231 cells assessed as cell death incubated at 10 uM for 20 hrs measured by DNS assay; assay type: functional
[16] = system: SH-SY5Y; assay: Cytotoxicity against human SH-SY5Y cells assessed as cell death incubated at 10 uM for 20 hrs measured by DNS assay; assay type: functional
[17] = system: HL-60; assay: Cytotoxicity against human HL-60 cells assessed as cell death incubated at 10 uM for 20 hrs measured by DNS assay; assay type: functional
[18] = system: HS27; assay: Cytotoxicity against human HS-27 cells assessed as cell death incubated at 10 uM for 20 hrs measured by DNS assay; assay type: toxicity, cell-based; details: hs27, 20 h
[19] = Selectivity index, ratio of CC50 for human HS-27 cells to CC50 for human CEM cells; assay type: functional
[20] = Toxicity in SCID mouse xenografted with human CEM cells assessed as effect on body weight at 50 mg/kg, ip; assay type: organism-based, CCRF-CEM; details: in vivo
[21] = Toxicity in SCID mouse xenografted with human CEM cells assessed as behavioral changes at 50 mg/kg, ip; assay type: organism-based, CCRF-CEM; details: in vivo
[22] = Toxicity in SCID mouse xenografted with human CEM cells assessed as effect on body weight at 20 mg/kg, ip; assay type: organism-based, CCRF-CEM; details: in vivo
[23] = Selectivity index, ratio of CC50 for human HS-27 cells to CC50 for human MDA-MB-231 cells; assay type: functional
[24] = system: MDA-MB-231; assay: Cytotoxicity against human MDA-MB-231 cells assessed as cell death incubated for 20 hrs measured by DNS assay; assay type: functional
[25] = Selectivity index, ratio of CC50 for human HS-27 cells to CC50 for human HeLa cells; assay type: functional
[26] = Selectivity index, ratio of CC50 for human HS-27 cells to CC50 for human SH-SY5Y cells; assay type: functional

| SMILES | IC50 [3] [µM] | IC50 [6] [µM] | inhibition [9] | inhibition [10] | other results |
| --- | --- | --- | --- | --- | --- |
| CCc1ccc(CCOc2ccc(CC3SC(=O)NC3=O)cc2)nc1 (configuration not stated) [PIOGLITAZONE] |  |  |  |  | Activity [1]: 0%; Activity [2]: 0% |
| O=C(COc1ccc2cc(/C=C3/SC(=O)NC3=O)ccc2c1)Nc1ccc(Br)cc1 | 16 | 2.9 |  |  | CC50 [8]: 10.1 µM |
| Cc1cccc(NC(=O)COc2ccc3cc(/C=C4/SC(=O)NC4=O)ccc3c2)n1 | 7.5 | 1.1 | Active | Active |  |
| O=C(COc1ccc2cc(/C=C3/SC(=O)NC3=O)ccc2c1)Nc1ccccn1 | > 50 | 17 | Active | Active |  |
| O=C(COc1ccc2cc(/C=C3/SC(=O)NC3=O)ccc2c1)Nc1cc(Cl)cc(C(F)(F)F)c1 | > 50 | 4 | Active | Active |  |
| O=C(COc1ccc2cc(/C=C3/SC(=O)NC3=O)ccc2c1)Nc1cccc(C(F)(F)F)c1 | > 50 | 2.5 | Active | Active | Activity [11]: >40%; Selectivity Index [12]: >10; CC50 [13]: 6.2 µM; Activity [14]: 25.87%; Activity [15]: 5.96%; Activity [2]: 39.09%; Activity [16]: 0%; Activity [17]: 19.55% |
| Cc1ccc(NC(=O)COc2ccc3cc(/C=C4/SC(=O)NC4=O)ccc3c2)cc1Cl | > 50 | 1.1 | Active | Active |  |
| O=C(COc1ccc2cc(/C=C3/SC(=O)NC3=O)ccc2c1)Nc1ccc(Cl)c(Cl)c1 | > 50 | 5.5 | Active | Active |  |
| O=C(COc1ccc2cc(/C=C3/SC(=O)NC3=O)ccc2c1)Nc1cccc(Cl)c1 | > 50 | 3.8 | Active | Active | CC50 [4]: 10.6 µM; Activity [11]: >40%; Activity [18]: 22.56%; Selectivity Index [12]: >10; Selectivity Index [19]: >10; CC50 [13]: 9.1 µM; Activity [14]: >40%; Activity [15]: 2.84%; Activity [2]: 29.68%; Activity [16]: 10.79%; Activity [17]: 27.58% |
| Cc1cccc2sc(NC(=O)COc3ccc4cc(/C=C5/SC(=O)NC5=O)ccc4c3)nc12 | 5.8 | 1.2 | Active | Active |  |
| O=C(CCCCCCC(=O)Nc1ccccc1)NO [VORINOSTAT] |  |  |  |  | CC50 [4]: 2.5 µM; CC50 [8]: 2.8 µM |
| COc1cccc2c1C(=O)c1c(O)c3c(c(O)c1C2=O)C[C@@](O)(C(=O)CO)C[C@@H]3O[C@H]1C[C@H](N)[C@H](O)[C@H](C)O1 [DOXORUBICIN] |  |  |  |  | Activity [22]: Non-Toxic |
| COc1cccc(NC(=O)COc2ccc3cc(/C=C4/SC(=O)NC4=O)ccc3c2)c1 | 7.6 | 1.6 | Active | Active | CC50 [4]: 10.7 µM; CC50 [8]: 10.4 µM; Activity [11]: >40%; Activity [18]: 24.69%; Selectivity Index [12]: >10; Selectivity Index [23]: >10; Selectivity Index [19]: >10; CC50 [13]: 9.3 µM; Activity [14]: >40%; Activity [15]: >40%; CC50 [24]: 9.8 µM; Selectivity Index [25]: >10; Activity [16]: 0%; Activity [17]: 0% |
| O=C(COc1ccc2cc(/C=C3/SC(=O)NC3=O)ccc2c1)Nc1ccc([N+](=O)[O-])cc1 | 4 | 1.7 |  |  | CC50 [24]: 55.8 µM |
| O=C(COc1ccc2cc(/C=C3/SC(=O)NC3=O)ccc2c1)Nc1nc2ccccc2s1 | 2.7 | 0.42 | Active | Active |  |
| O=C(COc1ccc2cc(/C=C3/SC(=O)NC3=O)ccc2c1)Nc1ccccc1Oc1ccccc1 | > 50 | 5.2 | Active | Active | CC50 [8]: 10.2 µM; Activity [11]: >40%; Selectivity Index [12]: >10; Selectivity Index [23]: >10; CC50 [13]: 10 µM; Activity [14]: 40.24%; Activity [15]: >40%; CC50 [24]: 10.3 µM; Selectivity Index [25]: >10; CC50 [7]: 52.3 µM; Activity [16]: >40%; Selectivity Index [26]: >10; Activity [17]: 0% |
| O=C(COc1ccc2cc(/C=C3/SC(=O)NC3=O)ccc2c1)Nc1cccc(F)n1 | 7.2 | 0.84 | Active | Active |  |
| O=C(COc1ccc2cc(/C=C3/SC(=O)NC3=O)ccc2c1)Nc1c(F)cc(F)cc1Br | > 50 | 1.1 |  |  | CC50 [4]: 9.6 µM; CC50 [8]: 10.4 µM; CC50 [5]: 39.9 µM; CC50 [13]: 9.6 µM; CC50 [24]: 9.8 µM; CC50 [7]: 21.8 µM |

The next lines start with results.

| IC50 [3] [µM] | IC50 [6] [µM] | inhibition [9] | inhibition [10] | SMILES | other results |
| --- | --- | --- | --- | --- | --- |
| > 50 | 1.9 |  |  | O=C(COc1ccc2cc(/C=C3/SC(=O)NC3=O)ccc2c1)Nc1ccc(Br)cc1F | CC50 [4]: 40.9 µM; CC50 [5]: 57 µM; CC50 [7]: 16 µM |
| 2.3 | 15 |  |  | O=C(COc1ccc2ccccc2c1/C=C1\SC(=O)NC1=O)Nc1ccc([N+](=O)[O-])cc1 |  |
| > 50 | 3.9 | Active | Active | O=C(COc1ccc2cc(/C=C3/SC(=O)NC3=O)ccc2c1)Nc1ccc(F)cc1F |  |
| 6.6 | 1.6 | Active | Active | O=C(COc1ccc2cc(/C=C3/SC(=O)NC3=O)ccc2c1)Nc1ccc(F)cc1 |  |
| 9 | 1.7 |  |  | Cc1ccc(NC(=O)COc2ccc3cc(/C=C4/SC(=O)NC4=O)ccc3c2)cc1 | CC50 [4]: 2.8 µM; CC50 [8]: 10.3 µM; CC50 [5]: 40.2 µM; CC50 [13]: 7 µM; CC50 [7]: 49.5 µM; Activity [20]: Non-Toxic; Activity [21]: Non-Toxic |
| > 50 | 1.7 | Active | Active | Cc1cc(NC(=O)COc2ccc3cc(/C=C4/SC(=O)NC4=O)ccc3c2)no1 |  |
| > 50 | 4.7 | Active | Active | COc1ccc(NC(=O)COc2ccc3cc(/C=C4/SC(=O)NC4=O)ccc3c2)cc1 |  |
| > 50 | 4.9 | Active | Active | O=C(COc1ccc2cc(/C=C3/SC(=O)NC3=O)ccc2c1)Nc1ccc(Br)c(Br)c1 |  |
| 7.4 | 0.55 |  |  | Cc1cc(Br)ccc1NC(=O)COc1ccc2cc(/C=C3/SC(=O)NC3=O)ccc2c1 | CC50 [8]: 9.9 µM; CC50 [7]: 91.1 µM |
| 17 | 3.6 | Active | Active | CCOc1ccc2nc(NC(=O)COc3ccc4cc(/C=C5/SC(=O)NC5=O)ccc4c3)sc2c1 |  |
| 9.3 |  |  |  | O=C(CN1C(=O)S/C(=C/c2ccccn2)C1=O)Nc1nc2ccccc2s1 |  |
| 4.5 | 2.1 | Active | Active | O=C(COc1ccc2cc(/C=C3/SC(=O)NC3=O)ccc2c1)Nc1ccccc1 |  |
